# “Also recorded” adds a separate entry of the source.
# How the values were obtained:
# hNek2 kinase = target: T1, hNek2 kinase (Homo sapiens, UniProt P51955); assay: ADP-Glo kinase assay, recombinant hNek2; type: biochemical
# T1 sequence (P51955 1-445): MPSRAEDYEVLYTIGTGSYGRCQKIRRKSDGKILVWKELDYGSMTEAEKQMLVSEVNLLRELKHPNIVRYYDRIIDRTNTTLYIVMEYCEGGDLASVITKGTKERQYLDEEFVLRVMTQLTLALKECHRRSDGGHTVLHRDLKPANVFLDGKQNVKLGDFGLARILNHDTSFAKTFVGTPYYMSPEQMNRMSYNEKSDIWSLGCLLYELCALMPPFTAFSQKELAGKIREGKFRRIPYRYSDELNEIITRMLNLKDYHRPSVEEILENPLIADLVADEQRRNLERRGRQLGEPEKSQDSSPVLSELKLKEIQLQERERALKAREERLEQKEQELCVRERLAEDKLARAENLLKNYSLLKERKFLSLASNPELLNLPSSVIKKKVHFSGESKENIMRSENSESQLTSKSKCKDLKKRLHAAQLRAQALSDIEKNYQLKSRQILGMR
# A549 lung cancer cells [1] = assay: Wound-healing; details: 24 hr post-treatment, versus vehicle control
# [2] = tested on: pAkt (Ser-473) in A549 cells; assay: Western-blot analysis of pAkt; details: 24 h treatment, compared to DMSO
# A549 lung cancer cells [3] = assay: MTT cell viability assay, A549; details: Homo sapiens, A549, read-out: Cell viability EC50, A549 (Figure 6A legend)
Compound,Loss of Nek2 inhibitory activity / increase of IC50 compared to V8 (hNek2 kinase),Cell migration in wound-healing assay (A549 lung cancer cells [1]),Mode of Nek2 inhibition (hNek2 kinase),Selectivity towards Nek2 kinase over the other tested kinases (hNek2 kinase; versus other tested kinases (Table 1)),Cellular levels of pAkt (Ser-473) [2],EC50 (A549 lung cancer cells [3])
CS(=O)(=O)N1CCC2(CC1)NCC(=O)N2 [Compound V0-1],> 13 fold,–,–,–,–,–
CN1CCC2(CC1)NCC(=O)N2 [Compound V0-3],significant loss of potency,–,–,–,–,–
CS(=O)(=O)N1CCC2(CC1)N=C(c1ccc(Br)cc1)C(=O)N2 [Compound V8],–,migrated slower than the vehicle control; also recorded: Dose-dependent inhibiton of cell migration,"competitive with respect to ATP, reversible, and selective; also recorded: selective, reversible and is not time dependent; also recorded: competitive inhibitor for ATP binding",9- to 13 fold,reduced levels of pAkt (Ser-473) in a dose-dependent manner,22.7 ± 0.2 µM
